What all share (type): biochemical
Assay [1] addresses T1, human JAK3 (aa 795-1124) catalytic domain (Homo sapiens, UniProt P52333).
T1 construct: JAK3 (aa 795-1124); GST (N); purchased Carna Biosciences; host or cells: baculovirus expression system
Nature of the assay: In vitro JAK kinase assay (TR-FRET), JAK3. To be noted: GST-fusion catalytic domain; ATP 0.6 μM; poly (GT)-Biotin 140 nM; 30 minutes at room temperature. On the procedure: (§1) Compounds were screened for their ability to inhibit JAK1, JAK2 and JAK3 using the assays as indicated below.
(§2) The catalytic domains of human JAK1 (aa 850-1154), JAK2 (aa 826-1132), JAK3 (aa 795-1124) and Tyk2 (aa 871-1187) were expressed as N-terminal GST-fusion proteins using a baculovirus expression system and were purchased from Carna Biosciences. The enzymatic activity was assayed using as substrate a biotinylated peptide, poly (GT)-Biotin (CisBio). The peptide concentration in the reactions was 60 nM for JAK1, 20 nM for JAK2, 140 nM for JAK3 and 50 nM for Tyk2. The degree of phosphorylation was detected by TR-FRET (time-resolved fluorescence energy transfer).
(§3) IC50s of compounds were measured for each kinase in a reaction mixture containing the enzyme, ATP and the peptide in 8 mM MOPS (pH 7.0), 10 mM MgCl2, 0.05% β-mercaptoethanol, 0.45 mg/mL BSA. The ATP concentration in the reactions was 3 μM for JAK1, 0.2 μM for JAK2, 0.6 μM for JAK3 and 1.8 μM for Tyk2. The enzymatic reactions took place for 30 minutes at room temperature. Then, the reactions were stopped with 20 μL of quench detection buffer (50 mM HEPES, 0.5 M KF, EDTA 0.25 M, 0.1% (w/v) BSA, pH 7.5) containing 0.115 μg/mL of anti-phosphoTyr (PT66)-Cryptate (CisBio) and a variable concentration of SA-XL665 (CisBio) to keep the SA-B ratio constant. Incubate for 3 h and read on Victor 2V spectrofluorometer (PerkinElmer) set to read fluorescence resonance energy transfer.
(In TR-FRET formats the signal depends on donor and acceptor labels being close together.)

Assay [2] addresses T2, human JAK2 (aa 826-1132) catalytic domain (Homo sapiens, UniProt O60674).
T2 construct: JAK2 (aa 826-1132); GST (N); purchased Carna Biosciences; host or cells: baculovirus expression system
Nature of the assay: In vitro JAK kinase assay (TR-FRET), JAK2. To be noted: GST-fusion catalytic domain; ATP 0.2 μM; poly (GT)-Biotin 20 nM; 30 minutes at room temperature. On the procedure: as §1, §2, §3

Assay [3] concerns the target T3, human JAK1 (aa 850-1154) catalytic domain (Homo sapiens, UniProt P23458).
T3 construct: human JAK1 (aa 850-1154); GST (N); purchased Carna Biosciences; host or cells: baculovirus expression system
Description: In vitro JAK kinase assay (TR-FRET), JAK1. To be noted: GST-fusion catalytic domain; ATP 3 μM; poly (GT)-Biotin 60 nM; 30 minutes at room temperature. On the procedure: as §1, §2, §3

T1 sequence (P52333 795-1124): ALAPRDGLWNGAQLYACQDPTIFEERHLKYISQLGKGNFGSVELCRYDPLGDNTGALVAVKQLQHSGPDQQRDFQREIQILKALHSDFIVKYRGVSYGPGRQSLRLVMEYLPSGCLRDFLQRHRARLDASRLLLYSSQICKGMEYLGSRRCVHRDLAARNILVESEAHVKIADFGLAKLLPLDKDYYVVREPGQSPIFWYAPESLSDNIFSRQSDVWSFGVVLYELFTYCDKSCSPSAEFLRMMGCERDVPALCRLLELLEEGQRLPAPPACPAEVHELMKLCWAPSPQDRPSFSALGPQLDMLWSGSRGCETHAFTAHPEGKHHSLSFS
T2 sequence (O60674 826-1132): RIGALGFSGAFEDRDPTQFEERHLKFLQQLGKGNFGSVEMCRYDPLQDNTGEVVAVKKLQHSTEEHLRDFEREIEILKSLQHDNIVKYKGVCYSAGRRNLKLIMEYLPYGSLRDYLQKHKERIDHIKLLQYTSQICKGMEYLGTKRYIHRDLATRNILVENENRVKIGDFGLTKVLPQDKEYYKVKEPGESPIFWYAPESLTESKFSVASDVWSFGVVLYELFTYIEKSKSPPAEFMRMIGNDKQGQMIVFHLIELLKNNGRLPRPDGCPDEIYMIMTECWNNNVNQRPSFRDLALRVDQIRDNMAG
T3 sequence (P23458 850-1154): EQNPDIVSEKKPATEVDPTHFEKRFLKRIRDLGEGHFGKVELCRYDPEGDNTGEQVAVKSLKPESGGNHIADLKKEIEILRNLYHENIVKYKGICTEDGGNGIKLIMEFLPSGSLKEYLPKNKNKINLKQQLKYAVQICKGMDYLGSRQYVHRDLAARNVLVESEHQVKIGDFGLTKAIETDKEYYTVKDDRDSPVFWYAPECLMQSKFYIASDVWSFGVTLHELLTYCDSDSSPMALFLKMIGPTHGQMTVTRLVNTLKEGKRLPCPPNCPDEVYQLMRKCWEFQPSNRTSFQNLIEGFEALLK

As to `O=C(C1CC1(F)F)N1CCC[C@@H](Nc2ccnc(-c3cnc4ccc(F)cn34)n2)C1` (stereo partly drawn) [Example 102, (2,2-Difluorocyclopropyl)((R)-3-(2-(6-fluoroimidazo[1,2-a]pyridin-3-yl)pyrimidin-4-ylamino)piperidin-1-yl)methanone], the IC50 in assay [1] is 100 to 1000 nM; in assay [2] it was below 100 nM; in assay [3], above 1000 nM.
In the case of `Fc1ccc2ncc(-c3nccc(N4CCCC4c4ccccn4)n3)n2c1` (stereo not drawn) [Example 90, 6-Fluoro-3-(4-(2-(pyridin-2-yl)pyrrolidin-1-yl)pyrimidin-2-yl)imidazo[1,2-a]pyridine], the values for the IC50 in assay [1], in assay [2] and in assay [3] were below 100 nM, below 100 nM and above 1000 nM, respectively.
In the case of `N#CCC(=O)N1CCC[C@@H](Nc2cc(C(=O)O)nc(-c3cnc4ccc(F)cn34)n2)C1` [Example 181, (R)-6-(1-(2-Cyanoacetyl)piperidin-3-ylamino)-2-(6-fluoroimidazo[1,2-a]pyridin-3-yl)pyrimidine-4-carboxylic acid], the IC50 in assay [1] is 100 to 1000 nM; in assay [2], below 100 nM; in assay [3], 100 to 1000 nM.
For `N#CC[C@H]1CC[C@H](Nc2nc(-c3cnc4ccc(F)cn34)ncc2C(N)=O)CC1` [Example 153, 4-((1r,4r)-4-(Cyanomethyl)cyclohexylamino)-2-(6-fluoroimidazo[1,2-a]pyridin-3-yl)pyrimidine-5-carboxamide], the IC50 in assay [1] was below 100 nM; in assay [2] it was below 100 nM; in assay [3] it was above 1000 nM.
Consider `O=C([C@H](O)CO)N1CCC[C@@H](Nc2nc(-c3cnc4ccc(F)cn34)nc(N3CCOCC3)c2F)C1` [Example 185, (R)-1-((R)-3-(5-Fluoro-2-(6-fluoroimidazo[1,2-a]pyridin-3-yl)-6-morpholinopyrimidin-4-ylamino)piperidin-1-yl)-2,3-dihydroxypropan-1-one], for which the IC50 is 100 to 1000 nM in assay [1], below 100 nM in assay [2] and 100 to 1000 nM in assay [3].
Take `O=C(c1cn[nH]c1)N1CCC[C@@H](Nc2ccnc(-c3cnc4ccc(F)cn34)n2)C1` [Example 67, 2-(6-Fluoroimidazo[1,2-a]pyridin-3-yl)-N-[(3R)-1-(1H-pyrazol-4ylcarbonyl)piperidin-3-yl]pyrimidin-4-amine]: the values for the IC50 in assay [1], in assay [2] and in assay [3] were 100 to 1000 nM, below 100 nM and 100 to 1000 nM, respectively.
With `N#Cc1cnc(N2CCC[C@@H](Nc3ccnc(-c4cnc5ccc(F)cn45)n3)C2)s1` [Example 131, (R)-2-(3-(2-(6-Fluoroimidazo[1,2-a]pyridin-3-yl)pyrimidin-4-ylamino)piperidin-1-yl)thiazole-5-carbonitrile], the IC50 in assay [1], in assay [2] and in assay [3] was below 100 nM throughout.
Take `C[C@H](Nc1cncc(-c2cnc3ccc(-c4ccccc4)cn23)n1)c1ccccc1` [Example 42, N-[(1S)-1-Phenylethyl]-6-(6-phenylimidazo[1,2-a]pyridin-3-yl)pyrazin-2-amine]: the IC50 is above 1000 nM in assay [1], 100 to 1000 nM in assay [2] and above 1000 nM in assay [3].
For the compound `CCC[C@H](Nc1nc(-c2cnc3ccc(F)cn23)ncc1C(N)=O)c1ccc(F)cc1` [Example 151, (S)-2-(6-Fluoroimidazo[1,2-a]pyridin-3-yl)-4-(1-(4-fluorophenyl)butylamino) pyrimidine-5-carboxamide], the IC50 was below 100 nM in assay [1], below 100 nM in assay [2] and 100 to 1000 nM in assay [3].
For the compound `N#Cc1ccc2ncc(-c3nccc(N[C@H]4CC[C@H](O)CC4)n3)n2c1` [Example 22, 3-{4-[(Trans-4-hydroxycyclohexyl)amino]pyrimidin-2-yl}imidazo[1,2-a]pyridine-6-carbonitrile], the IC50 in assay [1] was below 100 nM; in assay [2], below 100 nM; in assay [3] it was above 1000 nM.
In the case of `N#Cc1ccc(N2CCC[C@@H](Nc3ccnc(-c4cnc5ccc(C#N)cn45)n3)C2)nc1` [Example 57, 3-(4-{[(3R)-1-(5-Cyanopyridin-2-yl)piperidin-3-yl]amino}pyrimidin-2-yl)imidazo[1,2-a]pyridine-6-carbonitrile], the results for the IC50 in assay [1], in assay [2] and in assay [3] were below 100 nM, below 100 nM and above 1000 nM, respectively.
For the compound `N#CCC(=O)N1CCC[C@@H](Nc2cc(-n3cncn3)nc(-c3cnc4ccc(F)cn34)n2)C1` [Example 164, (R)-3-(3-(2-(6-Fluoroimidazo[1,2-a]pyridin-3-yl)-6-(M−1,2,4-triazol-1-yl)pyrimidin-4-ylamino)piperidin-1-yl)-3-oxopropanenitrile], the IC50 is below 100 nM in assay [1], below 100 nM in assay [2] and 100 to 1000 nM in assay [3].
In the case of `COc1cnc(-c2cnc3ccc(F)cn23)nc1N[C@@H]1CCCN(C(=O)CC#N)C1` [Example 163, (R)-3-(3-(2-(6-Fluoroimidazo[1,2-a]pyridin-3-yl)-5-methoxypyrimidin-4-ylamino)piperidin-1-yl)-3-oxopropanenitrile], the IC50 in assay [1] is below 100 nM; in assay [2] it was below 100 nM; in assay [3], 100 to 1000 nM.
Take `CCN(CC)C(=O)[C@H]1CCCN1c1ccnc(-c2cnc3ccc(F)cn23)n1` [Example 92, (R)—N,N-Diethyl-1-(2-(6-fluoroimidazo[1,2-a]pyridin-3-yl)pyrimidin-4-yl)pyrrolidine-2-carboxamide]: the IC50 in assay [1] is above 1000 nM; in assay [2], below 100 nM; in assay [3], 100 to 1000 nM.
Turning to `CN(CC#N)C(=O)N1CCC[C@@H](Nc2ccnc(-c3cnc4ccc(F)cn34)n2)C1` [Example 68, (3R)—N-(Cyanomethyl)-3-{[2-(6-fluoroimidazo[1,2-a]pyridin-3-yl)pyrimidin-4-yl]amino}-N-methylpiperidine-1-carboxamide], the figures for the IC50 in assay [1], in assay [2] and in assay [3] were below 100 nM, below 100 nM and 100 to 1000 nM, respectively.
For `CC(C)(C)CNc1nc(-c2cnc3ccc(C#N)cn23)ncc1N1CCNCC1` [Example 10, 3-{4-[(2,2-Dimethylpropyl)amino]-5-piperazin-1-ylpyrimidin-2-yl}imidazo[1,2-a]pyridine-6-carbonitrile], the IC50 is 100 to 1000 nM in assay [1], below 100 nM in assay [2] and above 1000 nM in assay [3].
For `N#CCC(=O)N1CCC[C@@H](Nc2cc(N3CCNCC3)nc(-c3cnc4ccc(F)cn34)n2)C1` [Example 166, (R)-3-(3-(2-(6-Fluoroimidazo[1,2-a]pyridin-3-yl)-6-(piperazin-1-yl)pyrimidin-4-ylamino)piperidin-1-yl)-3-oxopropanenitrile] the same measures were below 100 nM, below 100 nM and 100 to 1000 nM.
As to `Nc1cnc(-c2cnc3ccc(F)cn23)nc1NCc1ccc(F)cn1` [Example 136], the IC50 in assay [1], in assay [2] and in assay [3] was below 100 nM in each case.
For the compound `N#Cc1ccc2ncc(-c3nccc(NC4CCCCC4)n3)n2c1` [Example 21, 3-[4-(Cyclohexylamino)pyrimidin-2-yl]imidazo[1,2-a]pyridine-6-carbonitrile], the IC50 in assay [1] is below 100 nM; in assay [2], below 100 nM; in assay [3], 100 to 1000 nM.
As to `N#CCC(=O)N1CCC[C@@H](Nc2cc(OCCN3CCOCC3)nc(-c3cnc4ccc(F)cn34)n2)C1` [Example 175, (R)-3-(3-(2-(6-Fluoroimidazo[1,2-a]pyridin-3-yl)-6-(2-morpholinoethoxy)pyrimidin-4-ylamino)piperidin-1-yl)-3-oxopropanenitrile], the half-inhibitory concentration (IC50) in assay [1], in assay [2] and in assay [3] was below 100 nM in each case.
`O=C(Cc1ccc(CO)cc1)N1CCC[C@@H](Nc2ccnc(-c3cnc4ccc(F)cn34)n2)C1` [Example 107, (R)-1-(3-(2-(6-Fluoroimidazo[1,2-a]pyridin-3-yl)pyrimidin-4-ylamino)piperidin-1-yl)-2-(4-(hydroxymethyl)phenyl)ethanone]: the values for the IC50 in assay [1], in assay [2] and in assay [3] were above 1000 nM, below 100 nM and above 1000 nM, respectively.
With `CCCN1CC[C@@H](Nc2ccnc(-c3cnc4ccc(F)cn34)n2)C1=O` [Example 89, (R)-3-(2-(6-Fluoroimidazo[1,2-a]pyridin-3-yl)pyrimidin-4-ylamino)-1-propyl pyrrolidin-2-one], the values for the IC50 in assay [1], in assay [2] and in assay [3] were above 1000 nM, 100 to 1000 nM and above 1000 nM, respectively.

The term IC50 denotes the point on the concentration scale where inhibition reaches its midpoint. Low readings indicate greater potency in that assay, high ones weaker potency in that assay.
